± gives the standard deviation of the averaged measurements.
Legend:
Danio rerio embryo [1] = assay: EC50 Body length_Decrease
Description: (§1)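 Zebrafish embryos (UFZ-OBI strain) were exposed from 2 hpf for 48 h (2 dpf) or 96 h (4 dpf) at 28 °C; spontaneous tail coiling was scored at 25 hpf. Morphological features from automated image analysis (FishInspector), heart rate and locomotor response were fitted with drc models. Quantal endpoints were dichotomised at 2.5 SD from controls and fitted with a log-logistic model; heart rate, pigmentation and STC were normalised to the replicate control mean. Betamethasone was tested as betamethasone dipropionate, diflorasone as diflorasone diacetate.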

Danio rerio embryo [2] = assay: EC20 LMR dark; higher = less potent; conditions: exposure time: 4 dpf
Description: as §1

Danio rerio embryo [3] = assay: EC20 Bladder size_Decrease; higher = less potent; conditions: exposure time: 4 dpf
Description: as §1

Danio rerio embryo [4] = system: Danio rerio embryo
Description: as §1

Danio rerio embryo [5] = assay: EC50 Otolith-eye distance_Decrease; conditions: exposure time: 4 dpf
Description: as §1

Danio rerio embryo [6] = assay: EC50 Eye size_Decrease
Description: as §1

Danio rerio embryo [7] = assay: EC10 Body length_Decrease; higher = less potent
Description: as §1

Danio rerio embryo [8] = assay: EC50 Bladder size_Decrease; conditions: exposure time: 4 dpf
Description: as §1

Danio rerio embryo [9] = assay: EC20 Any effect; higher = less potent
Description: as §1

Danio rerio embryo [10] = assay: EC10 Any effect; higher = less potent
Description: as §1

Danio rerio embryo [11] = assay: EC20 Eye size_Decrease; higher = less potent
Description: as §1

Danio rerio embryo [12] = assay: EC10 LMR ligth decrease; higher = less potent; conditions: exposure time: 4 dpf
Description: as §1

Danio rerio embryo [13] = assay: EC50 Eye-jaw distance_Decrease; conditions: exposure time: 4 dpf
Description: as §1

Danio rerio embryo [14] = assay: EC20 LMR ligth decrease; higher = less potent; conditions: exposure time: 4 dpf
Description: as §1

Danio rerio embryo [15] = assay: EC10 Lack of SB; higher = less potent; conditions: exposure time: 4 dpf
Description: as §1

Danio rerio embryo [16] = assay: EC10 Eye size_Decrease; higher = less potent
Description: as §1

Danio rerio embryo [17] = assay: EC50 Pericard size_Increase; conditions: exposure time: 4 dpf
Description: as §1

Danio rerio embryo [18] = assay: EC20 Curvature_Increase; higher = less potent
Description: as §1

Danio rerio embryo [19] = assay: EC10 Pigmentation decrease; higher = less potent
Description: as §1

Danio rerio embryo [20] = conditions: exposure time: 4 dpf
Description: as §1

Danio rerio embryo [21] = assay: EC20 Otolith-eye distance_Decrease; higher = less potent; conditions: exposure time: 4 dpf
Description: as §1

Danio rerio embryo [22] = system: Danio rerio embryo; remark: listed apart in the source
Description: as §1

Danio rerio embryo [23] = assay: EC10 Curvature_Increase; higher = less potent
Description: as §1

Danio rerio embryo [24] = assay: EC10 Bladder size_Decrease; higher = less potent; conditions: exposure time: 4 dpf
Description: as §1

Danio rerio embryo [25] = assay: EC10 LMR dark; higher = less potent; conditions: exposure time: 4 dpf
Description: as §1

Danio rerio embryo [26] = conditions: exposure time: 4 dpf; remark: listed apart in the source
Description: as §1

Danio rerio embryo [27] = assay: EC20 Eye-jaw distance_Decrease; higher = less potent; conditions: exposure time: 4 dpf
Description: as §1

Danio rerio embryo [28] = assay: EC10 Pericard size_Increase; higher = less potent; conditions: exposure time: 4 dpf
Description: as §1

Danio rerio embryo [29] = assay: EC10 Eye-jaw distance_Decrease; higher = less potent; conditions: exposure time: 4 dpf
Description: as §1

Danio rerio embryo [30] = assay: EC10 Otolith-eye distance_Decrease; higher = less potent; conditions: exposure time: 4 dpf
Description: as §1

Danio rerio embryo [31] = assay: EC50 Curvature_Increase
Description: as §1

Danio rerio embryo [32] = assay: EC20 Lack of SB; higher = less potent; conditions: exposure time: 4 dpf
Description: as §1

Danio rerio embryo [33] = assay: EC10 STC bell shape; higher = less potent; conditions: exposure time: 25 h
Description: as §1

Danio rerio embryo [34] = assay: EC20 Pigmentation decrease; higher = less potent
Description: as §1

Danio rerio embryo [35] = assay: EC20 STC bell shape; higher = less potent; conditions: exposure time: 25 h
Description: as §1

Danio rerio embryo [36] = assay: EC20 Body length_Decrease; higher = less potent
Description: as §1

Danio rerio embryo [37] = assay: EC20 Pericard size_Increase; higher = less potent; conditions: exposure time: 4 dpf
Description: as §1

Danio rerio embryo [38] = assay: EC50 Yolk sac size_Decrease; conditions: exposure time: 4 dpf
Description: as §1

Danio rerio embryo [39] = assay: EC10 Yolk sac size_Decrease; higher = less potent; conditions: exposure time: 4 dpf
Description: as §1

Danio rerio embryo [40] = assay: EC20 Yolk sac size_Decrease; higher = less potent; conditions: exposure time: 4 dpf
Description: as §1

Danio rerio embryo [41] = assay: spontaneous tail coiling frequency (coils/min/embryo); higher = more spontaneous movement; conditions: 25 hpf
Description: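 Spontaneous tail coilings of zebrafish embryos exposed from 2 hpf were recorded at 24-25 hpf in 1-min videos and detected by a KNIME workflow from grey-value variance. Betamethasone was tested as the dipropionate, diflorasone as the diacetate.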

In the case of CC(=O)Nc1ccc(O)cc1 [Acetaminophen], the “EC50 Body length Decrease” value (Danio rerio embryo [1]; exposure time: 2 dpf) is reported as 3990 µM, the “EC50 Body length Decrease” value (Danio rerio embryo [1]; exposure time: 4 dpf) is reported as 3940 µM and the “EC20 LMR dark” value (Danio rerio embryo [2]) is reported as 500 µM. The “EC20 Bladder size Decrease” value (Danio rerio embryo [3]) was 1150 µM, the “EC50 Any effect” value (Danio rerio embryo [4]; exposure time: 2 dpf) was 2690 µM and the “EC50 Any effect” value (Danio rerio embryo [4]; exposure time: 4 dpf) was 1710 µM. The “EC50 LMR ligth decrease” value (Danio rerio embryo [4]; exposure time: 4 dpf) was 821 µM, the “EC50 STC bell shape” value (Danio rerio embryo [4]; exposure time: 25 h) was 8110 µM and the “EC50 Otolith-eye distance Decrease” value (Danio rerio embryo [5]) was 2720 µM. For the same molecule, the “EC50 Eye size Decrease” value (Danio rerio embryo [6]; exposure time: 2 dpf) was 2960 µM, the “EC50 Eye size Decrease” value (Danio rerio embryo [6]; exposure time: 4 dpf) was 1850 µM and the “EC10 Body length Decrease” value (Danio rerio embryo [7]; exposure time: 2 dpf) was 3230 µM. The “EC10 Body length Decrease” value (Danio rerio embryo [7]; exposure time: 4 dpf) was 2790 µM, the “EC50 Bladder size Decrease” value (Danio rerio embryo [8]) was 1420 µM and the “EC20 Any effect” value (Danio rerio embryo [9]; exposure time: 2 dpf) was 2050 µM. For the same molecule, the “EC20 Any effect” value (Danio rerio embryo [9]; exposure time: 4 dpf) was 1150 µM, the “EC10 Any effect” value (Danio rerio embryo [10]; exposure time: 2 dpf) was 1740 µM and the “EC10 Any effect” value (Danio rerio embryo [10]; exposure time: 4 dpf) was 915 µM. For the same molecule, the “EC20 Eye size Decrease” value (Danio rerio embryo [11]; exposure time: 2 dpf) was 2300 µM, the “EC20 Eye size Decrease” value (Danio rerio embryo [11]; exposure time: 4 dpf) was 1740 µM and the “EC10 LMR ligth decrease” value (Danio rerio embryo [12]) was 467 µM. For the same molecule, the “EC50 Eye-jaw distance Decrease” value (Danio rerio embryo [13]) was 2830 µM, the “EC20 LMR ligth decrease” value (Danio rerio embryo [14]) was 570 µM and the “EC10 Lack of SB” value (Danio rerio embryo [15]) was 1080 µM. The “EC10 Eye size Decrease” value (Danio rerio embryo [16]; exposure time: 2 dpf) was 1980 µM, the “EC10 Eye size Decrease” value (Danio rerio embryo [16]; exposure time: 4 dpf) was 1670 µM and the “EC50 Pericard size Increase” value (Danio rerio embryo [17]) was 3010 µM. For the same molecule, the “EC20 Curvature Increase” value (Danio rerio embryo [18]; exposure time: 2 dpf) was 2600 µM, the “EC20 Curvature Increase” value (Danio rerio embryo [18]; exposure time: 4 dpf) was 3370 µM and the “EC10 Pigmentation decrease” value (Danio rerio embryo [19]; exposure time: 2 dpf) was 1010 µM. The “EC10 Pigmentation decrease” value (Danio rerio embryo [19]; exposure time: 4 dpf) was 2380 µM, the “EC50 Lack of SB” value (Danio rerio embryo [20]) was 1440 µM and the “EC20 Otolith-eye distance Decrease” value (Danio rerio embryo [21]) was 2080 µM. The “EC50 Pigmentation decrease” value (Danio rerio embryo [22]; exposure time: 2 dpf) was 1580 µM, the “EC50 Pigmentation decrease” value (Danio rerio embryo [22]; exposure time: 4 dpf) was 16300 µM and the “EC10 Curvature Increase” value (Danio rerio embryo [23]; exposure time: 2 dpf) was 2100 µM. The “EC10 Curvature Increase” value (Danio rerio embryo [23]; exposure time: 4 dpf) was 3130 µM, the “EC10 Bladder size Decrease” value (Danio rerio embryo [24]) was 1020 µM and the “EC10 LMR dark” value (Danio rerio embryo [25]) was 337 µM. For the same molecule, the “EC50 LMR dark” value (Danio rerio embryo [26]) was 897 µM, the “EC20 Eye-jaw distance Decrease” value (Danio rerio embryo [27]) was 2410 µM and the “EC10 Pericard size Increase” value (Danio rerio embryo [28]) was 2250 µM. The “EC10 Eye-jaw distance Decrease” value (Danio rerio embryo [29]) was 2200 µM, the “EC10 Otolith-eye distance Decrease” value (Danio rerio embryo [30]) was 1780 µM and the “EC50 Curvature Increase” value (Danio rerio embryo [31]; exposure time: 2 dpf) was 3760 µM. The “EC50 Curvature Increase” value (Danio rerio embryo [31]; exposure time: 4 dpf) was 3830 µM, the “EC20 Lack of SB” value (Danio rerio embryo [32]) was 1200 µM and the “EC10 STC bell shape” value (Danio rerio embryo [33]) was 5590 µM. For the same molecule, the “EC20 Pigmentation decrease” value (Danio rerio embryo [34]; exposure time: 2 dpf) was 1180 µM, the “EC20 Pigmentation decrease” value (Danio rerio embryo [34]; exposure time: 4 dpf) was 2730 µM and the “EC20 STC bell shape” value (Danio rerio embryo [35]) was 6320 µM. The “EC20 Body length Decrease” value (Danio rerio embryo [36]; exposure time: 2 dpf) was 3500 µM, the “EC20 Body length Decrease” value (Danio rerio embryo [36]; exposure time: 4 dpf) was 3170 µM and the “EC20 Pericard size Increase” value (Danio rerio embryo [37]) was 2500 µM.
For C[C@@H]1C[C@H]2[C@@H]3CCC4=CC(=O)C=C[C@]4(C)[C@@]3(F)[C@@H](O)C[C@]2(C)[C@@]1(O)C(=O)CO [Dexamethasone], the “EC20 Bladder size Decrease” value (Danio rerio embryo [3]) was 2.7 µM, the “EC50 Any effect” value (Danio rerio embryo [4]; exposure time: 4 dpf) was 113 µM and the “EC50 Yolk sac size Decrease” value (Danio rerio embryo [38]) was 259 µM. For the same molecule, the “EC50 Bladder size Decrease” value (Danio rerio embryo [8]) was 14.3 µM, the “EC20 Any effect” value (Danio rerio embryo [9]; exposure time: 4 dpf) was 7.45 µM and the “EC10 Any effect” value (Danio rerio embryo [10]; exposure time: 4 dpf) was 1.52 µM. For the same molecule, the “EC10 Lack of SB” value (Danio rerio embryo [15]) was 0.944 µM, the “EC50 Pericard size Increase” value (Danio rerio embryo [17]) was 226 µM and the “EC50 Lack of SB” value (Danio rerio embryo [20]) was 16.2 µM. The “EC10 Yolk sac size Decrease” value (Danio rerio embryo [39]) was 2.27 µM, the “EC10 Bladder size Decrease” value (Danio rerio embryo [24]) was 1.02 µM and the “EC10 Pericard size Increase” value (Danio rerio embryo [28]) was 5.95 µM. The “EC20 Yolk sac size Decrease” value (Danio rerio embryo [40]) was 13.1 µM, the “spontaneous tail coiling frequency” value (Danio rerio embryo [41]; 2.5 µM) was 2.19 ± 1.4 and the “spontaneous tail coiling frequency” value (Danio rerio embryo [41]; 25.5 µM) was 3.02 ± 0.14. For the same molecule, the “spontaneous tail coiling frequency” value (Danio rerio embryo [41]; 63.7 µM) was 2.67 ± 0.078, the “spontaneous tail coiling frequency” value (Danio rerio embryo [41]; 127.4 µM) was 3.04 ± 0.58 and the “spontaneous tail coiling frequency” value (Danio rerio embryo [41]; 254.8 µM) was 2.79 ± 1.5. The “EC20 Lack of SB” value (Danio rerio embryo [32]) was 2.7 µM and the “EC20 Pericard size Increase” value (Danio rerio embryo [37]) was 22.8 µM.

— the supplement of paper PMC9013687
